In patent US4637902A, “Mixed anhydrides of carbamic and hydroxamic acids” (Fuji Photo Film Co., Ltd., priority 1983, dated 1987):

Assay: Measurement of Decomposition Rate of Base Precursor (gelatin film on triacetyl cellulose, absorbance change)
Assay type: physicochemical
Details: for Half-Life Period t1/2: 140° C.; for K at 140° C. (× 10^2), first-order reaction rate constant: head multiplier × 10^2
Experimental: Measurement of Decomposition Rate of Base Precursor About 400 mg of the base precursor of the present invention was dissolved in 25 ml of methanol. Separately, 400 mg of gelatin was dissolved in 5 ml of water with heating. After cooling, 5 ml of the above-described methanol solution was added thereto and the mixture well mixed. The resulting mixture solution was uniformly coated on a triacetyl cellulose support and dried to prepare samples. The absorbance of each of the samples at λ max (around 300 nm) was previously measured, then the sample was heated on a hot plate at a definite temperature. The change in absorbance versus time was plotted to calculate first-order reaction rate. Several examples of the reaction rate constants measured by the above-described method are given below.

Compound	Half-Life Period t1/2 [s]	K at 140° C. (× 10^2), first-order reaction rate constant
CN(C)C(=O)ONC(=O)c1ccccc1O [Base Precursor No. (1), Salicylhydroxamic Acid, N,N-Dimethylcarbamate]	10.3	6.7
CCN(CC)C(=O)ONC(=O)c1ccccc1O [Base Precursor No. (37)]	18.7	3.7
CCCCN(CCCC)C(=O)ONC(=O)c1ccccc1O [Base Precursor No. (38), Salicylhydroxamic Acid N,N-Dibutylcarbamate]	7.7	9.0
